MIC data for 27 compounds are collected here from US20230135729A1, “COMPOUND WITH ANTI-SPORE ACTIVITY AND PHARMACEUTICAL COMPOSITION THEREOF” (priority 2020, published 2023).

Values after ≈ are worked out from the molar mass of the structure shown.

Holding throughout (format): cell-based
The subject of assay [1] is spores of ATCC 630 strain. Description: Inhibition of germination of C. difficile spores (MIC), strain ATCC 630. The following applies: Clostridioides difficile, ATCC630, 1 h; strain 630; sodium taurocholate as germinant, BHIS medium, 37° C., OD580 for 60 min; read-out: MIC (minimum concentration that completely inhibits spore germination). As to the method: (§1) According to a method disclosed in “The Journal of Infectious Diseases. 2013; 207: 1498-504”, spores of ATCC BBA1870, ATCC 43255 and ATCC 630 strains were obtained by culture and purification, and stored at 4° C.
(§2) Spore preparation: the C. difficile spores stored at 4° C. were heat-activated for 30 min at 65° C., centrifuged at 9,400 g for 2 min, and washed three times to remove any self-germinating spores.
(§3) Control drug: three cholic acid derivatives, a compound CamSA, a compound 20β (prepared by the method of “Journal of Medicinal Chemistry. 2017, 60 (8): 3451-3471”), and a compound 12a (prepared by the method of “Journal of Medicinal Chemistry. 2018, 61, 6759-6778”), were used as control drugs.
(§4) Compound preparation: the compound of the present disclosure, and the positive control drugs CamSA, 20β, and 12a were dissolved in DMSO, to prepare a stock solution with a concentration of 10 mM (prepared for immediate use).
(§5) The detection was conducted in a 96-well cell culture plate at a constant temperature of 37° C.; a final volume of each well of the 96-well plate was […] and a buffer was the BHIS medium; 150 μl of spores and drugs were added to the well in advance, and 50 μl of 4 mg/ml sodium taurocholate was added; OD580 was detected every 1 min immediately using a microplate reader, for continuously 60 min. A germination agent control group and a non-germination group were set up; after the detection, a final OD value of each well was compared with an initial value, and compared with the germination agent group to calculate a germination rate and an inhibition rate. A formula for the germination rate was:
(§6) Inhibition rate=100%−germination rate.

Assay [2] has as its system spores of ATCC BBA1870 strain. Description: Inhibition of germination of C. difficile spores (MIC), strain ATCC BBA1870. As to conditions: Clostridioides difficile, ATCCBBA1870STRAIN, 1 h; strain 1870; sodium taurocholate as germinant, BHIS medium, 37° C., OD580 for 60 min; read-out: MIC (minimum concentration that completely inhibits spore germination). As to the method:
as §1, §2, §3, §4, §5, §6

The test system of assay [3] is spores of ATCC 43255 strain. Description: Inhibition of germination of C. difficile spores (MIC), strain ATCC 43255. As to conditions: Clostridioides difficile, ATCC43255, 1 h; strain 43255; sodium taurocholate as germinant, BHIS medium, 37° C., OD580 for 60 min; read-out: MIC (minimum concentration that completely inhibits spore germination). As to the method:
as §1, §2, §3, §4, §5, §6

Regarding `CC(NC(=O)C[C@@H](C)[C@H]1CC[C@H]2[C@@H]3C(=O)C[C@@H]4CC(=O)CC[C@]4(C)[C@H]3CC[C@]12C)c1ccccc1` (stereo partly drawn) [Compound I-23], the MIC in assay [1] was 2 µM (≈ 0.955 µg/mL); in assay [2], 4 µM (≈ 1.91 µg/mL); in assay [3] it was 2 µM (≈ 0.955 µg/mL).

Regarding `C[C@H](NC(=O)C[C@@H](C)[C@H]1CC[C@H]2[C@@H]3C(=O)C[C@@H]4CC(=O)CC[C@]4(C)[C@H]3CC[C@]12C)c1ccccc1` [Compound I-24], the MIC in assay [1], in assay [2] and in assay [3] was over 256 µM in each case.

In the case of `C[C@H](CC(=O)N[C@H](C)c1ccccc1)[C@H]1CC[C@H]2[C@@H]3C(=O)C[C@@H]4CC(=O)CC[C@]4(C)[C@H]3CC[C@]12C` [Compound I-25], the values for the MIC in assay [1], in assay [2] and in assay [3] were 1 µM (≈ 0.478 µg/mL), 2 µM (≈ 0.955 µg/mL) and 1 µM (≈ 0.478 µg/mL), respectively.

As for `C[C@H](CC(=O)NCc1cccs1)[C@H]1CC[C@H]2[C@@H]3C(=O)C[C@@H]4CC(=O)CC[C@]4(C)[C@H]3CC[C@]12C` [Compound I-26], the results for the MIC in assay [1], in assay [2] and in assay [3] were 0.5 µM (≈ 0.235 µg/mL), 0.5 µM (≈ 0.235 µg/mL) and 1 µM (≈ 0.47 µg/mL), respectively.

On to `CC(NC(=O)C[C@@H](C)[C@H]1CC[C@H]2[C@@H]3C(=O)C[C@@H]4CC(=O)CC[C@]4(C)[C@H]3CC[C@]12C)c1cccs1` (stereo partly drawn) [Compound I-27], for which the MIC in assay [1], in assay [2] and in assay [3] was 2 µM (≈ 0.967 µg/mL) in each case.

In the case of `C[C@H](NC(=O)C[C@@H](C)[C@H]1CC[C@H]2[C@@H]3C(=O)C[C@@H]4CC(=O)CC[C@]4(C)[C@H]3CC[C@]12C)c1cccs1` [Compound I-28], the MIC in assay [1], in assay [2] and in assay [3] was over 256 µM each time.

With `C[C@H](CC(=O)N[C@H](C)c1cccs1)[C@H]1CC[C@H]2[C@@H]3C(=O)C[C@@H]4CC(=O)CC[C@]4(C)[C@H]3CC[C@]12C` [Compound I-29], the MIC in assay [1], in assay [2] and in assay [3] was 1 µM (≈ 0.484 µg/mL) in each case.

On to `Cc1ccc(C(C)NC(=O)C[C@@H](C)[C@H]2CC[C@H]3[C@@H]4C(=O)C[C@@H]5CC(=O)CC[C@]5(C)[C@H]4CC[C@]23C)s1` (stereo partly drawn) [Compound I-30], for which the values for the MIC in assay [1], in assay [2] and in assay [3] were 1 µM (≈ 0.498 µg/mL), 2 µM (≈ 0.995 µg/mL) and 2 µM (≈ 0.995 µg/mL), respectively.

Consider `Cc1ccsc1C(C)NC(=O)C[C@@H](C)[C@H]1CC[C@H]2[C@@H]3C(=O)C[C@@H]4CC(=O)CC[C@]4(C)[C@H]3CC[C@]12C` (stereo partly drawn) [Compound I-31], for which the MIC in assay [1], in assay [2] and in assay [3] was 8 µM (≈ 3.98 µg/mL) in each case.

As to `CC(NC(=O)C[C@@H](C)[C@H]1CC[C@H]2[C@@H]3C(=O)C[C@@H]4CC(=O)CC[C@]4(C)[C@H]3CC[C@]12C)c1ccc(Br)s1` (stereo partly drawn) [Compound I-33], the MIC turned out to be 0.5 µM (≈ 0.281 µg/mL) in assay [1], 0.5 µM (≈ 0.281 µg/mL) in assay [2] and 1 µM (≈ 0.563 µg/mL) in assay [3].

In the case of `CC(NC(=O)C[C@@H](C)[C@H]1CC[C@H]2[C@@H]3C(=O)C[C@@H]4CC(=O)CC[C@]4(C)[C@H]3CC[C@]12C)c1ccc(S(=O)(=O)O)s1` (stereo partly drawn) [Compound I-34], the MIC in assay [1], in assay [2] and in assay [3] was 64 µM (≈ 36.1 µg/mL) in each case.

For `CC[C@H](NC(=O)C[C@@H](C)[C@H]1CC[C@H]2[C@@H]3C(=O)C[C@@H]4CC(=O)CC[C@]4(C)[C@H]3CC[C@]12C)c1cccs1` [Compound I-36], the MIC was determined as 4 µM (≈ 1.99 µg/mL) in assay [1], 8 µM (≈ 3.98 µg/mL) in assay [2] and 8 µM (≈ 3.98 µg/mL) in assay [3].

Take `CCC(NC(=O)C[C@@H](C)[C@H]1CC[C@H]2[C@@H]3C(=O)C[C@@H]4CC(=O)CC[C@]4(C)[C@H]3CC[C@]12C)c1ccc(Br)s1` (stereo partly drawn) [Compound I-38]: the MIC in assay [1] was found to be 1 µM (≈ 0.577 µg/mL); in assay [2] it was 2 µM (≈ 1.15 µg/mL); in assay [3], 2 µM (≈ 1.15 µg/mL).

In the case of `CCC(NC(=O)C[C@@H](C)[C@H]1CC[C@H]2[C@@H]3C(=O)C[C@@H]4CC(=O)CC[C@]4(C)[C@H]3CC[C@]12C)c1ccc(S(=O)(=O)O)s1` (stereo partly drawn) [Compound I-39], the MIC was 0.5 µM (≈ 0.289 µg/mL) in assay [1], 1 µM (≈ 0.578 µg/mL) in assay [2] and 0.5 µM (≈ 0.289 µg/mL) in assay [3].

For the compound `CC(C)C(NC(=O)C[C@@H](C)[C@H]1CC[C@H]2[C@@H]3C(=O)C[C@@H]4CC(=O)CC[C@]4(C)[C@H]3CC[C@]12C)c1cccs1` (stereo partly drawn) [Compound I-40], the MIC in assay [1] worked out at 2 µM (≈ 1.02 µg/mL); in assay [2], 4 µM (≈ 2.05 µg/mL); in assay [3] it was 2 µM (≈ 1.02 µg/mL).

Turning to `CCCCC(NC(=O)C[C@@H](C)[C@H]1CC[C@H]2[C@@H]3C(=O)C[C@@H]4CC(=O)CC[C@]4(C)[C@H]3CC[C@]12C)c1cccs1` (stereo partly drawn) [Compound I-42], the MIC in assay [1] is 1 µM (≈ 0.526 µg/mL); in assay [2], 2 µM (≈ 1.05 µg/mL); in assay [3] it was 1 µM (≈ 0.526 µg/mL).

For `C[C@H](CC(=O)NC(c1cccs1)C(C)(C)C)[C@H]1CC[C@H]2[C@@H]3C(=O)C[C@@H]4CC(=O)CC[C@]4(C)[C@H]3CC[C@]12C` (stereo partly drawn) [Compound I-43], the values for the MIC in assay [1], in assay [2] and in assay [3] were 32 µM (≈ 16.8 µg/mL), 64 µM (≈ 33.7 µg/mL) and 32 µM (≈ 16.8 µg/mL), respectively.

For the compound `CCCCCC(NC(=O)C[C@@H](C)[C@H]1CC[C@H]2[C@@H]3C(=O)C[C@@H]4CC(=O)CC[C@]4(C)[C@H]3CC[C@]12C)c1cccs1` (stereo partly drawn) [Compound I-44], the MIC in assay [1] is over 256 µM; in assay [2] it was 256 µM (≈ 138 µg/mL); in assay [3] it was over 256 µM.

Consider `CCCCCCCC(NC(=O)C[C@@H](C)[C@H]1CC[C@H]2[C@@H]3C(=O)C[C@@H]4CC(=O)CC[C@]4(C)[C@H]3CC[C@]12C)c1cccs1` (stereo partly drawn) [Compound I-45], for which the MIC in assay [1], in assay [2] and in assay [3] was over 256 µM in each case.

Regarding `CCCCCCCCCCCC(NC(=O)C[C@@H](C)[C@H]1CC[C@H]2[C@@H]3C(=O)C[C@@H]4CC(=O)CC[C@]4(C)[C@H]3CC[C@]12C)c1cccs1` (stereo partly drawn) [Compound I-46], the MIC in assay [1], in assay [2] and in assay [3] was over 256 µM in each case.

As for `CCCCCCCCCCCCCC(NC(=O)C[C@@H](C)[C@H]1CC[C@H]2[C@@H]3C(=O)C[C@@H]4CC(=O)CC[C@]4(C)[C@H]3CC[C@]12C)c1cccs1` (stereo partly drawn) [Compound I-47], the MIC in assay [1], in assay [2] and in assay [3] was over 256 µM throughout.

On to `C[C@H](CC(=O)N[C@H](c1cccs1)C1CC1)[C@H]1CC[C@H]2[C@@H]3C(=O)C[C@@H]4CC(=O)CC[C@]4(C)[C@H]3CC[C@]12C` [Compound I-49], for which the MIC in assay [1], in assay [2] and in assay [3] was over 256 µM throughout.

Regarding `C[C@H](CC(=O)NC(c1ccc(S(=O)(=O)O)s1)C1CC1)[C@H]1CC[C@H]2[C@@H]3C(=O)C[C@@H]4CC(=O)CC[C@]4(C)[C@H]3CC[C@]12C` (stereo partly drawn) [Compound I-52], the MIC in assay [1], in assay [2] and in assay [3] was 16 µM (≈ 9.44 µg/mL) each time.

As for `C[C@H](CC(=O)NC(c1cccs1)C1CCCC1)[C@H]1CC[C@H]2[C@@H]3C(=O)C[C@@H]4CC(=O)CC[C@]4(C)[C@H]3CC[C@]12C` (stereo partly drawn) [Compound I-53], the MIC in assay [1], in assay [2] and in assay [3] was 32 µM (≈ 17.2 µg/mL) throughout.

Regarding `C[C@H](CC(=O)NC(c1cccs1)C1CCCCC1)[C@H]1CC[C@H]2[C@@H]3C(=O)C[C@@H]4CC(=O)CC[C@]4(C)[C@H]3CC[C@]12C` (stereo partly drawn) [Compound I-54], the MIC is 256 µM (≈ 141 µg/mL) in assay [1], over 256 µM in assay [2] and over 256 µM in assay [3].

For `C[C@H](CC(=O)NC(c1ccccc1)c1cccs1)[C@H]1CC[C@H]2[C@@H]3C(=O)C[C@@H]4CC(=O)CC[C@]4(C)[C@H]3CC[C@]12C` (stereo partly drawn) [Compound I-55], the MIC in assay [1] is 32 µM (≈ 17.5 µg/mL); in assay [2], 64 µM (≈ 34.9 µg/mL); in assay [3], 32 µM (≈ 17.5 µg/mL).

On to `C[C@H](CC(=O)NC(c1cccs1)c1cccs1)[C@H]1CC[C@H]2[C@@H]3C(=O)C[C@@H]4CC(=O)CC[C@]4(C)[C@H]3CC[C@]12C` [Compound I-56], for which the MIC in assay [1], in assay [2] and in assay [3] was 16 µM (≈ 8.83 µg/mL) each time.
